The METLIN SMRT retention time set (Domingo-Almenara et al. 2019)

Test: gradient 5% acetonitrile 3 min, to 50% in 2 min, to 85% in 15 min, held 3 min, 100 µL/min
Details: column: Zorbax Extend-C18 2.1 x 50 mm; eluents: water / acetonitrile, 0.1% formic acid
How it was run: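 Mixtures of ~100 pure standards were chromatographed on a Zorbax Extend-C18 column (2.1 × 50 mm, 1.8 μm) at 100 μL/min using water and acetonitrile, each with 0.1% formic acid. Detection used a quadrupole time-of-flight mass spectrometer in positive and negative ionization mode, and data collection spanned 3 months. Retention time was obtained from adduct peaks picked computationally and each checked manually.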

SMILES | RP-LC retention time [s]
O=C(CCn1c(=O)sc2ccccc21)Nc1ccc(Br)cc1 | 884
Cn1c(=O)c2ccn(CC(=O)Nc3ccc(F)cc3Cl)c2n(C)c1=O | 695
Cc1ccn2c(NC(=O)c3cccc([N+](=O)[O-])c3)c(-c3ccc(F)cc3)nc2c1 | 863
CCOC(=O)c1ccc(NC(=O)N2CCCC2c2cc(C(C)C)no2)cc1 (stereo not drawn) | 942
COc1ccc2[nH]cc(C(=O)O)c(=O)c2c1 | 605
O=C1CCCc2cc(S(=O)(=O)N3CCC(C(=O)N4CCC5(CC4)OCCO5)CC3)ccc2N1 | 662
COCCN1CC2(CCN(S(=O)(=O)c3cc(F)cc(F)c3)CC2)C1c1ccccc1 (stereo not drawn) | 718
Cc1cc(C(=O)Nc2nc3c(s2)CN(C(=O)c2snnc2C)CC3)no1 | 660
Cc1cccc(CNS(=O)(=O)c2c(C)sc(C)c2-c2n[nH]c(C)c2C)c1 | 1070
CC1CCN(C(=O)C2=CN(c3ccc4c(c3)OCCO4)c3ccccc3S2(=O)=O)CC1 | 899
COc1cccc(NC(=O)NCCn2c(C(F)(F)F)nc3cccnc32)c1 | 698
COc1ccccc1-c1cc(C(=O)N2CCN(c3cc(=O)n(C(C)C)c(=O)n3C(C)C)CC2)[nH]n1 | 861
CCOCc1nc(C2CCCN2S(=O)(=O)c2c(C)nn(C)c2C)no1 (stereo not drawn) | 691
COc1ccc2c(c1)[C@H]1OCCC[C@H]1C(c1ccc(C(=O)O)cc1)N2 (stereo partly drawn) | 820
COc1ccc(S(=O)(=O)N2CCN(c3cc(C)c4ccccc4n3)CC2)cc1 | 701
CCCN1CCn2cc(S(=O)(=O)Nc3ccc(OC)cc3)cc2C1=O | 715
CC1=C(c2ccc(C)cc2)S(=O)(=O)N=C1N1CCCN(C(=O)NC2CCCC2)CC1 | 857
O=C(CCc1c[nH]c2ccccc12)N1CCC(c2nc3ccccc3[nH]2)CC1 | 594
CCn1cc(S(=O)(=O)N2C[C@@H](COC)[C@H](C(=O)NC)C2)cn1 | 603
CC#CCOC(=O)c1c(C)nc2sc3c(c2c1N)CCC(O)C3 (stereo not drawn) | 662
O=C(Nc1cnc(N2CCCC2)nc1)c1ccc(F)cc1 | 710
Cn1cc(S(=O)(=O)N2CCCCC2)cc1C(=O)N1CCN(c2ccccc2F)CC1 | 961
O=C(c1cccc(Cl)c1)N1CCN(c2nc(CN3CCOCC3)cs2)CC1 | 623
Cc1ccc(NC(=O)C2(C)Oc3cccnc3NC2=O)c(C)c1 (stereo not drawn) | 727
CCc1cccc(NS(=O)(=O)c2cn(C(C)C)c3ncccc23)c1 | 946
Cc1cc(NC(=O)CSc2nnc(-c3c(C)nc4sccn34)n2C)no1 | 588
COc1cc(Cl)c(NC(=O)CN2C(=O)CN(C)C(=O)c3ccccc32)c(OC)c1 | 717

SMILES | RP-LC retention time [s]
CCC1CCCCN1S(=O)(=O)c1cc(-c2nc(C)c(C)s2)sc1C (stereo not drawn) | 1320
O=C(NC1(c2nc(C3CC3)no2)CCCCC1)c1cc(-c2ccc(F)cc2)n[nH]1 | 905
CC(C)c1cccc(NC(=O)Cn2nc3n(c2=O)CCCCC3)c1 | 700
COCCNC(=O)c1ccc(CS(=O)Cc2ccccc2Cl)o1 (stereo not drawn) | 664
O=C(CSc1nnc(NC(=O)C2CC2)s1)NCc1ccc(F)cc1 | 674
Cc1csc(NC(=O)C2CCN(S(=O)(=O)c3cc(-c4noc(C)n4)cs3)CC2)n1 | 829
CC(C)(C)NC(=O)N1CCC(CNC(=O)C(=O)NCCC2=CCCCC2)CC1 | 818
O=C(c1cnn2c(C(F)(F)F)cc(-c3ccccc3)nc12)N1CCN(c2ccccn2)CC1 | 687
CCC(c1cccs1)N1C(=O)[C@H]2CN(Cc3cccnc3)C[C@H]2C1=O (stereo partly drawn) | 653
O=C(CCn1cnc2ccccc2c1=O)N1CCN(c2ccccn2)CC1 | 578
Cc1ccccc1CN1CCN(CC(=O)N2CCN(Cc3ccccc3)CC2)C(=O)C1=O | 609
CCOC(=O)c1ccc(N2C=C(C(=O)N3CCCC3)S(=O)(=O)c3ccccc32)cc1 | 813
COc1cc(CNC(=O)C2CC(=O)N(c3ccc4oc(C)nc4c3)C2)cc(OC)c1 (stereo not drawn) | 687
Cn1c(=O)sc2cc(S(=O)(=O)N3CCC(C(=O)N4CCc5ccccc54)CC3)ccc21 | 933
COc1ccc(CNC(=O)COc2ccc(NC(=O)C3CC3)cn2)cc1OC | 666
COc1cccc(CNC(=O)C2CCN(S(=O)(=O)c3cn(C(C)C)cn3)CC2)c1 | 714
O=C(CCc1conc1-c1ccc(F)cc1)NC1CCN(Cc2ccccc2)CC1 | 657
Cc1cc(C(=O)N2CCC(c3noc(N)c3C(C)C)CC2)c(C)o1 | 759
COCCN1CCCCc2cc(C(=O)NC3CCS(=O)(=O)C3)sc21 (stereo not drawn) | 734
COc1cccc(CNC(=O)NCCC2CCN(S(=O)(=O)c3ccc(C)cc3)CC2)c1 | 873
CCOC(=O)c1nc(NCC2CCN(Cc3ccccc3C)CC2)c2c(C)noc2n1 | 738
Cc1ccsc1CCNC(=O)C1CCN(S(=O)(=O)c2ccc3c(c2)sc(=O)n3C)CC1 | 872
C[C@@H]1COCCN1c1cc(C2(S(C)(=O)=O)CC2)nc(-c2cccc3[nH]ccc23)n1 | 775
COc1cccc(CC(=O)NC2CCN(c3cc(-c4cccs4)[nH]n3)C2)c1 (stereo not drawn) | 658
Cc1nnc(NC(=O)CSc2nnc(-c3ccc(=O)n(C)c3)n2C)s1 | 532
O=C(CN1CCN(Cc2ccc(F)cc2)C1=O)N1CCN(C2CCCCC2)CC1 | 613
CNC(=O)N1CCC(C2CCN(C(=O)CN3CCCC3=O)C2)CC1 (stereo not drawn) | 585

The remaining lines, values ahead:

RP-LC retention time [s] | SMILES
1390 | CC(C)c1ccc(-c2nc(-c3cccc(-c4ccnn4C)c3)no2)cc1
905 | COC(=O)c1cccc(Nc2c(-c3cccc(Cl)c3)nc3cnccn23)c1
1110 | Cc1nc2nc(-c3ccc(C(C)(C)C)cc3)nn2c(C)c1CC(=O)N(C)Cc1ccccc1
1210 | O=C(Cc1csc(-c2ccccc2)n1)Nc1nc(-c2ccccc2Cl)cs1
1210 | COc1ccccc1CNS(=O)(=O)c1ccccc1-c1nc(-c2ccc(F)cc2)no1
795 | O=C(CCc1c(-c2ccc(Cl)cc2)nc2ccccn12)Nc1cccc(F)c1
988 | O=c1ccc(-c2ccc3c(c2)OCO3)nn1Cc1nc(-c2ccc(F)cc2)no1
596 | CCN1CCN(c2cc(C(=O)O)c3cc(NS(=O)(=O)c4cccc(C)c4)ccc3n2)CC1
782 | O=C(CCc1c(-c2ccc(Cl)cc2)nc2ccccn12)Nc1cccc(C(F)(F)F)c1
1040 | CSc1cccc(NC(=O)Cn2cnc3c(sc4nc(-c5ccccc5)ccc43)c2=O)c1
984 | COC(=O)c1ccc(NC(=O)C2CCCN(S(=O)(=O)c3cc(-c4noc(C)n4)cs3)C2)cc1 (stereo not drawn)
1070 | COc1ccc(-c2nc(-c3cn(-c4cccc(Cl)c4)nn3)no2)c(OC)c1
1010 | O=C1CC(c2noc(-c3ccccc3F)n2)CN1c1ccc(Cl)cc1 (stereo not drawn)
1020 | Cc1cc(C)n(CCC(=O)N2CC(Oc3ccc(-c4nc(-c5ccccc5)no4)cc3)C2)n1
788 | CCc1noc2nc(C)n(CC(=O)NCc3ccccc3F)c(=O)c12
785 | Cc1ccc2c(Nc3ccc(Cl)cc3)c(-c3nc(C)no3)cnc2n1
1180 | CCc1nc2cc(-c3noc(/C=C/c4ccc(C)o4)n3)ccc2o1

RP-LC retention time [s] | SMILES
1070 | O=C(Cn1cnc2c(sc3nc(-c4ccccc4)ccc32)c1=O)Nc1cc(F)cc(F)c1
716 | Cc1ccc(-c2nnc(-c3ccc(-n4ccnc4)nc3)o2)cc1F
1100 | CCc1ccc(NC(=O)Cn2c(=O)cc(-c3nc(C(C)C)no3)c3ccccc32)cc1
939 | Cc1noc(C)c1-c1ccc(S(=O)(=O)Nc2ccc(F)c(F)c2)cc1
842 | COc1ccc(-c2csc(NC(=O)Cn3nc(C)cc3C)n2)cc1
1210 | CCc1nc2cc(-c3noc(-c4sccc4C)n3)ccc2o1
793 | O=C(Nc1ccc(OCc2nnc(-c3ccccc3)o2)cc1)c1cccnc1Cl
895 | C=CCNC(=O)c1cnn(-c2cc(-c3nc(C4CC4)no3)ccn2)c1C
1230 | Cc1ccccc1-c1csc(Nc2ccc(Br)cn2)n1
634 | c1cc2c(cc1-c1noc(-c3ccc4c(c3)OCO4)n1)ncn2CCN1CCCC1
1310 | CC(C)n1c(=O)oc2cc(-c3noc(-c4ccc(C(F)(F)F)cc4)n3)ccc21
673 | CSc1ccccc1C(=O)Nc1ccc2cn[nH]c2c1
1070 | COc1ccc(-c2ncc3c(n2)CCN(S(=O)(=O)c2cccc(C)c2)C3)cc1
687 | COc1ccc(OC)c(CNC(=O)Cc2nnc(-c3ccccn3)o2)c1
737 | Cc1ccn2c(NC(=O)c3ccc(C)c(C)c3)c(-c3ccc(F)cc3)nc2c1
953 | Cc1ccc2nc(NC(=O)Cc3csc4nc(-c5ccc(C)c(C)c5)cn34)sc2c1
997 | Cc1ccc(C2CC(=O)N(c3ccc(F)c(F)c3)C(=O)C2)cc1
